Assays:
Homo sapiens = organism: Homo sapiens; assay: Selectivity index, ratio of IC50 for human recombinant MAO-B to IC50 for human recombinant MAO-A
[1] = biological target: T1, Amine oxidase [flavin-containing] A (Homo sapiens, UniProt P21397); assay: Inhibition of human recombinant MAO-A using kynuramine as substrate incubated for 20 mins by fluorescence spectrophotometric analysis
T1 sequence (P21397 whole entry): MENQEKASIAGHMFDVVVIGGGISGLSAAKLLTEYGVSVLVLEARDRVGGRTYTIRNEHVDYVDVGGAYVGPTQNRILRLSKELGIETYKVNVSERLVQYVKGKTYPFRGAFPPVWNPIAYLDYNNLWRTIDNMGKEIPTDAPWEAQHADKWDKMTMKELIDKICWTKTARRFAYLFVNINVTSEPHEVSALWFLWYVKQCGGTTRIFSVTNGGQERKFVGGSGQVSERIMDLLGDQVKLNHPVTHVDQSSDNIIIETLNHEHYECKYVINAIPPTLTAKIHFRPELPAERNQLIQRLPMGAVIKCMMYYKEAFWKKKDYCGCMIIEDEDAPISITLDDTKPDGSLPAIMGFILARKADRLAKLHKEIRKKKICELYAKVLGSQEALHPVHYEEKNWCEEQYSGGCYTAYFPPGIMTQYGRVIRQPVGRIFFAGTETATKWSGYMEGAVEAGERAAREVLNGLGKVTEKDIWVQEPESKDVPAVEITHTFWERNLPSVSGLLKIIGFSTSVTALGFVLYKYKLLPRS

[2] = biological target: T2, Amine oxidase [flavin-containing] B (Homo sapiens, UniProt P27338); assay: Inhibition of human recombinant MAO-B using kynuramine as substrate incubated for 20 mins by fluorescence spectrophotometric analysis
T2 sequence (P27338 whole entry): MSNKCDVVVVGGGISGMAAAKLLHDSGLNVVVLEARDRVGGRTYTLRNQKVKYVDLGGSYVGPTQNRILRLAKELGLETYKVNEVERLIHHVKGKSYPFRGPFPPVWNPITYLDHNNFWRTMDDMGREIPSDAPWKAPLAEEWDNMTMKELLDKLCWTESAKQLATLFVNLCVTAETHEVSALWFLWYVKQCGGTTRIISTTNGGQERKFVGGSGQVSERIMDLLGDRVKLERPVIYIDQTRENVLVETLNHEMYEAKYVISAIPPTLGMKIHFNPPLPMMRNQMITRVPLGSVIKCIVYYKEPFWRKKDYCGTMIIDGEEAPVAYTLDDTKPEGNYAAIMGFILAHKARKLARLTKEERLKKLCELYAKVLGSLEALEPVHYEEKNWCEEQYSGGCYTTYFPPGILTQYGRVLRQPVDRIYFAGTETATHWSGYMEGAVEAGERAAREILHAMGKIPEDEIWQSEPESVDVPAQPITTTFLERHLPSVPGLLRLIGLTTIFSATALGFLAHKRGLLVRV

Ratio IC50 (Homo sapiens)	IC50 [1] [µM]	IC50 [2] [µM]	SMILES
> 680	0.147	> 100	COc1ccc(-c2c(C=O)c3cc(C#N)c(C#N)cc3n2OC)cc1
> 20	4.99	> 100	COn1c(-c2ccccc2)c(CO)c2cc(C#N)c(C#N)cc21
> 400	0.25	> 100	O=C1NC(=O)c2cc3c(Cl)c(-c4ccccc4)[nH]c3cc21
> 18	5.51	> 100	COc1ccc(C(=O)Cc2cc3c(cc2[N+](=O)[O-])C(=O)N(Cc2ccccc2)C3=O)cc1
–	> 100	> 100	O=C(Cc1cc(C(=O)O)c(C(=O)O)cc1[N+](=O)[O-])c1cccs1
> 9	11.1	> 100	N#Cc1cc2cc(-c3cccs3)n(O)c2cc1C#N
< 0.83	> 100	83.1	O=C1NC(=O)c2cc3c(cc21)cc(-c1ccccc1)n3O
> 88	1.13	> 100	COc1ccc(-c2c(CO)c3cc(C#N)c(C#N)cc3n2OC)cc1
0.56	6.7	3.75	COn1c(-c2cccs2)cc2cc3c(cc21)C(=O)NC3=O
0.44	2.11	0.923	Cc1ccc(C(=O)Cc2cc3c(cc2[N+](=O)[O-])C(=O)NC3=O)cc1
> 5.3	19	> 100	COC(=O)c1cc2cc(-c3ccc(OC)cc3)n(OC)c2cc1C(=O)OC
1.5	6.92	10.3	N#Cc1cc2cc(-c3ccccc3)n(O)c2cc1C#N
> 192	0.522	> 100	COn1c(-c2ccccc2)c(C=O)c2cc(C#N)c(C#N)cc21
–	> 100	> 100	COc1ccc(C(=O)Cc2cc(C(=O)O)c(C(=O)O)cc2[N+](=O)[O-])cc1
< 0.075	> 100	7.46	COn1c(-c2ccc(C)cc2)c(Br)c2cc(C#N)c(C#N)cc21
> 16	6.35	> 100	O=C1NC(=O)c2cc3c(cc21)cc(-c1cccs1)n3O
> 20	5.12	> 100	COn1c(-c2ccc(C)cc2)c(CO)c2cc(C#N)c(C#N)cc21
> 16	6.12	> 100	O=C(Cc1cc2c(cc1[N+](=O)[O-])C(=O)NC2=O)c1cccs1

Ratio IC50 (Homo sapiens)	IC50 [1] [µM]	IC50 [2] [µM]	SMILES
–	> 100	> 100	COc1ccc(-c2cc3cc(C(=O)O)c(C(=O)O)cc3n2O)cc1
–	> 100	> 100	Cc1ccc(-c2cc3cc(C(=O)O)c(C(=O)O)cc3n2O)cc1
2.4	23.3	56.2	O=C(O)c1cc2cc(-c3ccccc3)n(O)c2cc1C(=O)O
–	> 100	> 100	Cc1ccc(C(=O)Cc2cc(C(=O)O)c(C(=O)O)cc2[N+](=O)[O-])cc1
185	0.405	74.8	COn1c(-c2ccc(C)cc2)c(C=O)c2cc(C#N)c(C#N)cc21
0.72	1.14	0.821	Cc1ccc(-c2cc3cc(C#N)c(C#N)cc3n2O)cc1
–	> 100	> 100	COn1c(-c2ccccc2)c(Br)c2cc(C#N)c(C#N)cc21
0.33	1.75	0.581	COn1c(-c2ccc(C)cc2)cc2cc3c(cc21)C(=O)NC3=O
7	1.16	8.09	Cc1ccc(-c2cc3cc4c(cc3n2O)C(=O)NC4=O)cc1
–	> 100	> 100	O=C(Cc1cc(C(=O)O)c(C(=O)O)cc1[N+](=O)[O-])c1ccccc1
> 81	1.24	> 100	COn1c(-c2ccccc2)cc2cc3c(cc21)C(=O)N(C)C3=O
0.97	1.84	1.79	COc1ccc(-c2cc3cc(C#N)c(C#N)cc3n2O)cc1
–	> 100	> 100	O=C(O)c1cc2cc(-c3cccs3)n(O)c2cc1C(=O)O
1.3	5.38	6.79	O=C(Cc1cc2c(cc1[N+](=O)[O-])C(=O)NC2=O)c1ccccc1
0.93	2.08	1.94	CC(=O)On1c(-c2cccs2)cc2cc(C#N)c(C#N)cc21
1.8	0.661	1.21	COc1ccc(C(=O)Cc2cc3c(cc2[N+](=O)[O-])C(=O)NC3=O)cc1
–	> 100	> 100	O=C(Cc1cc2c(cc1[N+](=O)[O-])C(=O)N(Cc1ccccc1)C2=O)c1cccs1

Source: ChEMBL document CHEMBL3797064, “An evaluation of synthetic indole derivatives as inhibitors of monoamine oxidase” (Bioorg Med Chem Lett, 2016)
